Measurements as given in patent publication US9801922B2, “Compositions and methods of treating cancer” (UNIVERSITY OF IOWA RESEARCH FOUNDATION, priority 2011, dated 2017).

Key:
[1] = tested on: SUM159 human breast cancer cells; experiment: Clonogenic cell survival, SUM159; format: cell-based; conditions: for cytotoxicity (clonogenic survival), in words: 500 nM AUR 15 min
Experimental: FIGS. 1A-D: BSO, DTPP and AUR treated SUM159, MDA-MB231 and HMEC Clonogenic survival. In Panel A (SUM 159), B (MDA-MB231) and C(HMEC), 150,000 cells/dish SUM159 or MDA-MB231 and 300,000 cells/dish were plated in 60 mm tissue culture dishes. After 48 hours, cells were given fresh complete HMECs media and treated with 100 μM BSO+/1 μM DTPP for 24 hours. 500 nM AUR were added 15 mins before the trypsinization of cells for clonogenic survival assay. In panel A-C, The error bars represent mean±1 SD of n=1 treatment dishes done in 3 separate experiments where each treatment dish was used to prepare 6-10 replicate cloning dishes for analysis. *p<0.001 as compared to Control. […] Mice growing Sum159 xenograft tumors were treated with 100 μM DTPP in drinking water for 2 weeks followed by i.p. injections of BSO 675 mg/kg followed in 2 hrs with Au 2.7 mg/kg. The day following injections tumors were harvested, digested and stained for ALDH positive cells. Each bar represents an average of at least three tumors. Error bars are SEM. *p<0.05 vs. control.
FIG. 2: BSO and AUR treated SUM159 dose response Clonogenic survival. 150,000 cells/dish SUM159 were plated in 60 mm tissue culture dishes. After 48 hours, cells were given fresh complete HMECs media and treated with 100 μM BSO 24 hours. 500 nM AUR were added 15 mins, 30 mins, 45 mins, 1 hr, 1.5 hrs and 3 hrs before the trypsinization. Cells were then collected and plated for clonogenic survival. In panel A-C, The error bars represent mean±1 SD of n=1 treatment dishes done in 3 separate experiments where each treatment dish was used to prepare 6-10 replicate cloning dishes for analysis. *p<0.001 as compared to SUM159 Control. ^p<0.001 as compared to HMEC Control.
FIGS. 3A-3B: Clonogenic survival of SUM159 and MDA-MB231 cells treated with BSO, DTPP and AUR in the presence of 20 mM NAC. Asynchronously growing cultures of SUM159 (panel A) and MDA-MB231 (panel B) were plated as described in FIG. 1. After 48 hours, cells were given fresh complete HMECs media and treated with 100 μM BSO+/1 μM DTPP in the presence or absence of 20 mM NAC for 24 hours. 500 nM AUR were added 15 mins before the trypsinization. cells were then collected and plated for clonogenic survival. In panel A, B, The error bars represent mean±1SD of n=1 treatment dishes done in 3 separate experiments where each treatment dish was used to prepare 6-10 replicate cloning dishes for analysis. *p<0.001 as compared to W/O NAC Control. ^p<0.001 as compared to W/NAC Control.
FIG. 6: BSO, DTPP and AUR treated SUM159 in the presence of 100 U/ml PEGSOD+/PEGCAT Clonogenic survival. Asynchronously growing cultures of SUM159 were plated as described in FIG. 1. After 48 hours, cells were given fresh complete HMECs media and treated with 100 μM BSO+/1 μM DTPP in the presence or absence of PEGSOD+/PEGCAT (100 U/mL each) for 24 hours. Control received PEG alone (18 μM) for 24 hours. 500 nM AUR were added 15 mins before the trypsinization. Cells were then collected and plated for clonogenic survival. In panel A, B, The error bars represent mean±1 SD of n=1 treatment dishes done in 3 separate experiments where each treatment dish was used to prepare 6-10 replicate cloning dishes for analysis. *p<0.001 as compared to PEG alone Control. ^p<0.001 as compared to PEGCAT Control, $ p<0.001 as compared to PEGSOD+CAT Control.
Clonogenic cell survival: To determine whether the DTPP exposure alters the cell proliferation in MDA-MB231, SUM159 and HMECs, 150,000 cells/dish of MDA-MB231 and SUM159 cells, and 300,000 cells/dish HMECs were plated in 60 mm tissue culture dishes. After 48 hours, at 24 hours prior to each clonogenic survival experiment, media in all the dishes were changed to HMECs media and then treated with 100 μM BSO and 1 μM DTPP for 24 h. Cells were treated with AUR for 15 minutes prior to each clonogenic survival experiment. […]

[2] = tested on: SUM159 human breast cancer cells; experiment: ALDEFLUOR assay of ALDH positive (cancer stem) cell fraction; format: cell-based; conditions: for percentage of ALDH positive cell population: 100 μM BSO, 1 μM DTPP 24 h, 500 nM AUR 15 min, control 2.61%; for ALDH positive cell population decreased to (relative to control): single agent
Experimental: FIG. 16: The fraction of Aldehyde dehydrogenase activity positive (ALDH+) cancer cells (also known as early progenitor cancer stem cells) is decreased in SUM159 human breast cancer cells treated with inhibitors of glutathione and thioredoxin metabolism (BSO, AUR, respectively) combined with DTPP. Asynchronously growing cultures of SUM159 were incubated with 100 μM BSO and/or 1 μM DTPP for 24 hours in HMEC media. 500 nM AUR were added into cell culture 15 minutes before the assay. Monolayer cultures were harvested and trypsinized, washed once with PBS and labeled 40 minutes in PBS at 37° C. with BAAA (1 μmol/1 per 1 x 10^6 cells). The negative controls were also added with 50mmol/L diethylaminobenzaldehyde (DEAB). After labeling, Hochest dye for viability assay was added and then kept on ice. Each sample was then analyzed for the ALDH positive cell percentage of 100,000 cells by flow cytometry. Errors represent Mean ±1 SD of 3 samples from two separate experiments […], * p <0.05 as compared to Control.
Estimation of Cancer stem cell fractions using the Aldefluor assay: The ALDEFLUOR kit (StemCell Technologies, Durham, N.C., USA) was used to determine the subpopulation of cancer cells with a high ALDH enzymatic activity. SUM159 human breast cancer cells were plated and treated as described earlier in clonogenic survival experiment. After the exposure, the cells were trypsinized and washed with PBS once then re-suspended in ALDEFLUOR assay buffer containing ALDH substrate (BAAA, 1 μmol/l per 1×10^6 cells) and incubated for 40 minutes at 37° C. As negative control, for each sample of cells an aliquot was treated with 50 mmol/L diethylaminobenzaldehyde (DEAB), a specific ALDH inhibitor. In order to sort out non-viable cells, each sample received 4 μg/ml of Hoechst 33258 (Molecular Probes, Invitrogen). Cells were filtered through […] and kept on ice until analysis. Samples were analyzed by using a Becton Dickinson LSR II with 355 nm, 488 nm, and 633 nm lasers. (Becton Dickinson Immunocytometry System, INC., Mountain View, Calif.). The ALDH positive cells of 100,000 cells were determined by using the sorting gate established with DEAB negative control and Hochest viability control. The ALDH positive cells were represented by percentage of total 100,000 cell events.

Structure (SMILES)	cytotoxicity (clonogenic survival), in words ([1]; 100 μM BSO, 1 μM DTPP 24 h)	effect on ALDH positive cell population, in words ([2]; 100 μM BSO 24 h)	survival fraction (of control cells) in the presence of NAC ([1]; 1 μM DTPP with 20 mM NAC, 24 hrs)	decrease in cell survival / survival fraction compared to control ([1]; 100 μM BSO and/or 1 μM DTPP for 24 hours)	clonogenic cell killing ([1]; 100 μM BSO, 1 μM DTPP 24 h, 500 nM AUR 15 min (FIG. 1A))	clonogenic survival without PEGSOD+PEGCAT ([1]; PEG alone control) [%]	clonogenic survival with PEGSOD+PEGCAT ([1]; PEGSOD+PEGCAT 100 U/ml each) [%]	percentage of ALDH positive cell population [2] [%]	ALDH positive cell population decreased to (relative to control) [2]
CCCCS(=N)(=O)CCC(N)C(=O)O [BSO, L-buthionine-[S,R]-sulfoximine, reference compound]	did not cause significantly cytotoxicity	not able to decrease the ALDH positive cell population	–	–	–	–	–	–	–
CCCCCCCCCC[P+](c1ccccc1)(c1ccccc1)c1ccccc1 [DTPP, Decyl-Triphenylphosphonium]	–	–	at least 70%	70%-80%	at least 70%	35	70	1.16	around 50%
CC[PH](CC)(CC)[Au][S][C@@H]1O[C@H](COC(C)=O)[C@@H](OC(C)=O)[C@H](OC(C)=O)[C@H]1OC(C)=O [AUR, S-triethylphosphinegold(I)-2,3,4,6-tetra-O-acetyl-1-thio-β-D-glucopyranoside]	did not cause any significant cytotoxicity	–	–	–	–	–	–	1.11	around 50%
